Assay results published in paper PMC10482350, “Nucleoside diphosphate kinases 1 and 2 regulate a protective liver response to a high-fat diet” (Science Advances, 2023).
Values belong to the molecule of their own block, whether it stands above or below them.

How the values were obtained:
[1] = target: T1, NME1 (Mus musculus, UniProt P15532); test: histidine phosphorylation (native gel, native MS); release of NME1 from CoA beads; type: biochemical; design: full-length recombinant
[2] = target: T1, NME1; test: ITC; crystal structure ([…] Å), native MS, nanoDSF; type: binding; design: full-length, His-tag cleaved by TEV
[3] = target: T2, NME2 (Mus musculus, UniProt Q01768); test: CoA-agarose pull-down of GST-NME2 from bacterial extract; type: cell-based
T2 construct: full-length, GST-tagged

[4] = target: T1, NME1; test: dephosphorylation of phosphohistidine NME1 (immunoblot); type: biochemical; design: full-length recombinant
[5] = target: the molecule itself; test: native MS; recombinant purified NME1 without ligand or incubated with CoA, AcCoA, SucCoA, dephospho-CoA or ATP; charge states +22 and +21 of the hexamer; methods in the Supplementary Materials

T2 sequence (Q01768 whole entry): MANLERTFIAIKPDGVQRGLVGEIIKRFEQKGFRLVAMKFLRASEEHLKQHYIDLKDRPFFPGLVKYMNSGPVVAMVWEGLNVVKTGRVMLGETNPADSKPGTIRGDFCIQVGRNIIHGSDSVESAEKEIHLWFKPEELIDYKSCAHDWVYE

Molecule: Nc1ncnc2c1ncn2[C@@H]1O[C@H](COP(=O)(O)OP(=O)(O)OP(=O)(O)O)[C@@H](O)[C@H]1O [ATP]
histidine phosphorylation (native gel, native MS); release of NME1 from CoA bead [1]: recombinant murine NME1 purified from bacteria could be phosphorylated by ATP and subsequently dephosphorylated by ADP or guanosine diphosphate (GDP)

Kd [2]: ~18 µM
Molecule: CC(C)(COP(=O)(O)OP(=O)(O)OC[C@H]1O[C@@H](n2cnc3c(N)ncnc32)[C@H](O)[C@@H]1OP(=O)(O)O)[C@@H](O)C(=O)NCCC(=O)NCCS [CoA]
CoA-agarose pull-down of GST-NME2 from bacterial extract [3]: NME2 exhibits an ATP-sensitive CoA binding activity comparable to that of NME1 (fig. S11A)

Molecule: Nc1nc2c(ncn2[C@@H]2O[C@H](CO[P@](=O)(O)OP(=O)(O)O)[C@@H](O)[C@H]2O)c(=O)[nH]1 [GDP]
dephosphorylation of phosphohistidine NME1 (immunoblot) [4]: phosphorylated by ATP and subsequently dephosphorylated by ADP or guanosine diphosphate (GDP)

B1: nucleoside diphosphate kinase 1 (NME1), recombinant murine (enzyme, mouse, UniProt P15532 1-152, looked up)
chain: MANSERTFIAIKPDGVQRGLVGEIIKRFEQKGFRLVGLKFLQASEDLLKEHYTDLKDRPFFTGLVKYMHSGPVVAMVWEGLNVVKTGRVMLGETNPADSKPGTIRGDFCIQVGRNIIHGSDSVKSAEKEISLWFQPEELVEYKSCAQNWIYE
notes: also called NDPK 1; WT NME1; source: E. coli BL21-Gold(D3), purified (HisTrap, TEV cleavage, Superdex 200 SEC); not shown: His6, N-terminal, cleaved
stoichiometry N [5]: 6
